Entries after “also recorded” stand apart in the source; their conditions may differ. Where two headings read alike, the source gives them in different places. One block for each compound: values may come before it.
Key:
IL-17A-IL-17RA binding = biological target: T1, IL-17A-IL-17RA binding (Homo sapiens, UniProt Q96F46); assay: IL-17A-IL-17RA binding assay (ELISA); conditions: for IC50: in vitro inhibition assay; for Inhibition of IL-17A-IL-17RA binding: serial dilutions of compound
T1 construct: human IL-17RA-Fc (extracellular domain 1-322 AA fused with Fc region of human IgG1 at the C-terminus); purchased Sino Biological Inc
T1 sequence (Q96F46 33-322): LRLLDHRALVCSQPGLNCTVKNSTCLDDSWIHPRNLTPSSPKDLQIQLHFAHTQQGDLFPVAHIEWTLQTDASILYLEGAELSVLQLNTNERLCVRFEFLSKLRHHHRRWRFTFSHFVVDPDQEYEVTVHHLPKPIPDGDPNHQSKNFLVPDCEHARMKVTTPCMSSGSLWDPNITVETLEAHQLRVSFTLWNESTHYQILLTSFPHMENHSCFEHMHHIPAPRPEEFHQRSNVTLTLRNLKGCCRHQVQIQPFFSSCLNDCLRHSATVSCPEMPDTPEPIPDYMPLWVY
Protocol: IL-17A-IL-17RA binding assay. ELISA plates were coated with human IL-17A or IL-17E (2 μg/ml in PBS). Human IL-17RA-Fc or human IL-17RB-Fc (150 ng/ml) were added and incubated for 1 h, followed by incubation with human HRP-conjugated anti human IgG Fc secondary antibody for 1 h. ELISA were finally developed using tetramethylbenzidine substrate.

[1] = biological target: T2, recombinant human IL-17RA ectodomain (Homo sapiens, UniProt Q96F46); assay: Fluorescence binding measurement (fluorescence quenching); conditions: one-site total binding fit
T2 construct: The recombinant human IL-17RA ectodomain was expressed in baculovirus-infected Sf-9 cells; made in house; host or cells: baculovirus-infected Sf-9 cells
T2 sequence (Q96F46 33-320 limits assumed): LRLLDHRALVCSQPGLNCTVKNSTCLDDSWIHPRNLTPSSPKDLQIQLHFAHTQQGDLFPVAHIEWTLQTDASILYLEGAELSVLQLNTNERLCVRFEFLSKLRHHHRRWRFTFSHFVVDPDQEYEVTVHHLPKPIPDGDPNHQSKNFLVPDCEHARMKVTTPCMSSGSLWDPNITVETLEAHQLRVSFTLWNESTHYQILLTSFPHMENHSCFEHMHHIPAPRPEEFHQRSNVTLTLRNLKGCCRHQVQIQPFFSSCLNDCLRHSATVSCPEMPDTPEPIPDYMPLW
Protocol: Fluorescence binding measurement. The recombinant human IL-17RA ectodomain was expressed in baculovirus-infected Sf-9 cells and purified as described previously. Liu et al., Nat Commun 4, 1888 (2013). The compound A18 or A0 was obtained from NCI. The purified IL-17RA protein (final concentration at 1 uM) was mixed with various concentrations of compound A0 in the solution consisting of 20 mM Tris, pH 7.5, 150 mM NaCl, and 5% DMSO in a 96-well black flat-bottom microplate (Greiner Bio-One). The reaction mixtures were incubated at room temperature at 120 rpm for 10 min, and fluorescence intensity was measured on a 2300 EnSpire Multimode Plate Reader (PerkinElmer) with excitation (265 nm) and emission (336 nm) wavelengths for A18 or with excitation (240 nm) and emission (337 nm) wavelengths for A0. The fluorescence signal (relative fluorescence intensity) was obtained by subtracting the background fluorescence of buffer and compound A0, and plotted as a function of the concentration of compound A0. The fluorescence quenching was observed as a consequence of the protein-ligand interaction at dose-dependent concentrations of compound A0, and the binding constant of compound A0 to IL-17RA was estimated by one-site total binding fit model (GraphPad Prism).

[2] = tested on: human mammary epithelial cells (HMEC); assay: IL-17A-induced CXCL1 (Groα) production, ELISA; format: cell-based; conditions: IL-17 100 ng/ml, 24 h
Text: (§1) Reagents, cell culture and mice. Purified proteins of human IL-17A, human IL-17E (IL-25), human IL-17RA-Fc (extracellular domain 1-322 AA fused with Fc region of human IgG1 at the C-terminus), human IL-17RB-Fc (extracellular domain 1-289 AA fused with Fc region of human IgG1 at the C-terminus), human horseradish peroxidase (HRP)-conjugated IgG Fc secondary antibody were purchased from Sino Biological Inc. Human and mouse IL-17A and mouse IL-23 used for cell culture and animal injection were purchased from R&D Systems. Human mammary epithelial cells were maintained in Medium 171 plus mammary epithelial growth supplement (MEGS) purchased from Invitrogen, which contain bovine pituitary extract (BPE) (0.4% v/v), recombinant human insulin-like growth factor-I (1 μg/ml), hydrocortisone (0.5 μg/ml) and human epidermal growth factor (3 ng/ml). A549 cells were maintained in RPMI supplemented with 10% FCS and 100 U/ml penicillin and 100 μg/ml streptomycin. All mice were obtained from Jackson laboratory.
(§2) ELISA. Groα and IL-17A levels were assayed by ELISA kits (R&D systems) according to the manufacturer's instruction.

A549 cells = assay: IL-17A-induced CXCL1 (Groα) production, ELISA; format: cell-based, human; conditions: A549, IL-17 100 ng/ml, 24 h
Text: as §1, §2

[3] = tested on: IL-17F-induced gene expression; assay: IL-17F-induced gene expression in epithelial cells; format: cell-based, human; conditions: data not shown
psoriasis = conditions: patients; cited from earlier work
multiple sclerosis = conditions: 6-month, placebo-controlled trial, 73 patients; cited from earlier work
[4] = read-out: IC50, IL-17A-IL-17RA binding inhibition assay
[5] = read-out: IC50, IL-17A-IL-17RA binding assay

IC50 (IL-17A-IL-17RA binding; [5]): > 30000 nM
Compound: Oc1ccc2cc(O)c(-c3ccc(O)c(O)c3)[o+]c2c1 [A18Δ5OH]

IC50 (IL-17A-IL-17RA binding; [4]): 198 nM
Compound: Oc1cc(O)c2ccc(-c3ccc(O)c(O)c3)[o+]c2c1 [luteolinidin, reference compound]

IC50 (IL-17A-IL-17RA binding; [5]): > 100000 nM
Compound: Oc1ccc(-c2[o+]c3cc(O)cc(O)c3cc2O)cc1 [pelargonidin, reference compound]

Further lines, the compound ahead of its results:

Compound: Oc1cc(O)c2c(c1)O[C@@H](c1ccc(O)c(O)c1)[C@H](O)C2 [A0, (2S,3R)-2-(3,4-dihydroxyphenyl)-3,4-dihydro-2H-chromene-3,5,7-triol]
IC50 (IL-17A-IL-17RA binding; [4]): 956 nM
Inhibition of IL-17A-IL-17RA binding (IL-17A-IL-17RA binding): excellent inhibition efficacy; also recorded: great inhibition efficacy
Binding constant to IL-17RA [1]: in the same range as A18
IL-17A-mediated CXCL1 production [2]: greatly inhibited
IL-17A-mediated CXCL1 production (A549 cells): greatly inhibited
IL-17F-induced gene expression [3]: able to block

Compound: OC[C@H]1O[C@@H](Oc2cc3c(O)cc(O)cc3[o+]c2-c2ccc(O)c(O)c2)[C@H](O)[C@@H](O)[C@@H]1O [cyanidin-3-O-glucoside, reference compound]
IC50 (IL-17A-IL-17RA binding; [4]): 96.4 nM

Compound: O=C(O)c1ccc(O)c(O)c1 [photocatechuic acid, reference compound]
Inhibition of IL-17A-IL-17RA binding (IL-17A-IL-17RA binding): greatly reduced inhibitory activity

Compound: secukinumab: Anti-IL17A antibody (Cosentyx/secukinumab from Novartis)
Efficacy for psoriasis (psoriasis): extreme efficacy
Responding rate in psoriasis (psoriasis): greater than 85%
MS-type brain lesions (multiple sclerosis): significantly lowered
Relapse rates (multiple sclerosis): trend toward reduced

Reference: patent publication US10385034B2, “Flavonoid IL-17A inhibitors” (THE CLEVELAND CLINIC FOUNDATION, priority 2014, dated 2019)
